The values below are quoted from earlier work in US20050267140A1, “Method for treating abnormal cell growth” (priority 2004, published 2005).

The subject of this data set is previously untreated patients with metastatic colorectal cancer.
The mark [1] stands for this setting: capecitabine treatment arms, 2500 mg/m^2/day for 14 days every 3 weeks.

Like-named read-outs stand apart in the source and are kept apart here.

As for `CCCCCOC(=O)Nc1nc(=O)n([C@@H]2O[C@H](C)[C@@H](O)[C@H]2O)cc1F` [capecitabine, 5′-deoxy-5-fluoro-N-[(pentyloxy)-carbonyl]-cytidine], the Median survival by setting is: (European trial (N=602), p=0.30) 13.3 months; (US trial (N=605), p=0.24) 12.5 months. Besides, the “Grade 3-4 diarrhea” value under setting [1] was 14%. The “Grade 3-4 hand-foot syndrome” value under setting [1] is 17%. Further, the Overall response rate is 21% (first of the 2 trials as listed ('respectively'), p=0.014) and 21% (second of the 2 trials as listed ('respectively'), p=0.03).
